“And” between values parts separate entries of the source, which are not always exact repeats. Identical values can stand only once.
What was measured:
human CB2 receptor = human CB2 receptor (Homo sapiens (Human), UniProt P34972); assay: Membrane [35S]GTPγS binding assay; type: biochemical
Procedure: Human CB2 expressing CHO-K1 membranes (5 μg per incubation mixture) were diluted in 50 mM Tris-HCl (pH 7.5) and 0.5 mM EDTA and added to HU compounds in a pre-mixed incubation cocktail. Final incubation concentrations were 55 mM Tris-HCl (pH 7.4), 1 mM EDTA, 100 mM NaCl, 5 mM MgCl2, 0.5% BSA, 50 μM GDP, 0.2 nM [^35S]GTPγS (PerkinElmer) with varied HU compound concentration and 5 μg membrane. Incubations were continued for 60 minutes at 30° C. in a shaking water bath. Assays were terminated by addition of 2 ml ice cold wash buffer (50 mM Tris-HCl, pH 7.5 and 5 mM MgCl2) and filtration through pre-soaked GF/C filters (Whatman), followed by two further washes. adioactivity was determined as described for competition binding assays.
Data was analyzed using the Prism 4.02 programme (GraphPad Software, San Deigo, Calif., USA). IC50 and EC50 values, as determined from sigmoidal curves, were generated from drug concentrations plotted in log scale. […] It is possible to display data as an average, plus or minus the standard error of the mean in log form, however, this is not easily interpreted or compared to other values. It was therefore elected to calculate the 95% confidence interval for the mean value in log form and then convert the lower limit, mean and upper limit into the molar (linear) scale. […] Two-tailed t-tests for statistical analysis between enantiomeric pairs of compounds were performed for CB2 Ki values. The Pearson value, an indication of linearity, was determined for Ki and IC50 or EC50 results obtained for CB2 receptors in binding, cAMP or GTPγS experiments, respectively.

closed head injury (CHI) = assay: Closed head injury (CHI) model, neurological severity score, C57Bl mice; type: in vivo
Procedure: The study was conducted according to the guidelines of the Institutional Animal Care Committee of the Hebrew University. Male Sabra mice weighing 35 to 50 g were used in all experiments. Animals were kept under controlled light conditions with a 12 h/12 h light/dark cycle. Experimental closed head injury (CHI) was induced using a modified weight drop device developed in our laboratory as described previously (Chen et al., 1996). At 1 h after CHI, the functional status of the mice was evaluated according to a set of 10 neurobehavioral tasks, namely the neurological severity score (NSS). This score is based on the ability of the mice to perform 10 different tasks (Beni-Adani et al., 2001) that evaluate their motor ability, balance, and alertness. One point is given for failing to perform a task. The severity of injury is indicated by the initial NSS, which is evaluated 1 h after CHI and is also a reliable predictor of the later outcome. A score of 10 reflects maximal neurologic impairment, and a decrease of NSS during the recovery period indicates partial recovery of function.
Data was analyzed using the Prism 4.02 programme (GraphPad Software, San Deigo, Calif., USA). The data are expressed as mean±SEM and statistical significance was assessed with one way analysis of variance (ANOVA) followed by a Dunnett's post-hoc analysis for TNF-α levels. […]

TNF-α = TNF-α production in brain following CHI (ELISA); type: in vivo, mice; conditions: HU-914 5 mg/kg i.p. 1 h after CHI, sacrificed 4 hrs after CHI
Procedure: TNF-α activity can be induced by ischemic and traumatic brain injury starting at 1-2 h and reaching the peak at 4 h following CHI. (Shohami et al., 1997). The next step was to investigate the effect of HU-914 on TNF-α production after CHI. Three groups of mice (n=5-6) were subjected to CHI: • Group 1 (Control): Sham controls received anesthesia and skin incision only. • Group 2: Vehicle only (ethanol:cremophor:saline at ratio of 1:1:18), i.p. 1 h after CHI. • Group 3: HU-914, 5 mg/kg, dissolved in vehicle (1:1:18 ethanol:cremophor:saline), i.p. 1 h after CHI.
The animals were sacrificed 4 hrs after CHI by decapitation. Brains were rapidly removed and dissected into ipsilateral and contralateral cortical and hippocampal segments that were frozen in liquid nitrogen and kept at […]. […] Following sonication on ice for 45 s and centrifugation at 12,000 rpm for 20 min, protein concentrations in the supernatants were determined using the Bradford method (Bio-Rad Laboratories, Munich, Germany). Supernatants were analyzed by enzyme-linked immunosorbent assay (ELISA) for production of TNF-α, using cytokine specific kit from R&D Systems (Minneapolis, Minn.). […] TNF-α elevation was not detected in the right cortex or hippocampus (FIG. 8).

Structure (SMILES) | EC50 (human CB2 receptor) [nM] | Emax (human CB2 receptor; read-out: [35S]GTPγS Emax) [%] | recovery, Neurological Severity Score (NSS) (closed head injury (CHI); HU-914 2.5 and 5 mg/kg i.p., day 14 post injury, vs vehicle or 10 mg/kg) | most effective doses (NSS recovery) (closed head injury (CHI); i.p. 1 h after CHI, followed 14 days) | TNF-α level, left cortex (TNF-α) | TNF-α production, hippocampus of the injured left hemisphere (TNF-α)
CCCCCCC(C)(C)c1cc(OC)c(C2=C[C@H]3CC[C@]2(CO)C3(C)C)c(OC)c1 [HU-910, (1S,4R)-(2-(2,6-dimethoxy-4-(2-methyloctan-2-yl)phenyl)-7,7-dimethylbicyclo[2.2.1]hept-2-en-1-yl)methanol] | 26.4 | 121 ± 7 | – | – | – | –
CCCCCCC(C)(C)c1cc(OC)c(C2=C[C@H]3CC[C@]2(C(=O)O)C3(C)C)c(OC)c1 [HU-914, (1S,4R)-2-(2,6-dimethoxy-4-(2-methyloctan-2-yl)phenyl)-7,7-dimethylbicyclo[2.2.1]hept-2-ene-1-carboxylic acid] | – | – | significant greater recovery | 2.5 mg/kg and 5 mg/kg | did not affect the cytokine's level | inhibited TNF-α production

— patent publication US9365534B2, “Arylated camphenes, processes for their preparation and uses thereof” (Yissum Research Development Company of the Hebrew …, priority 2009, dated 2016)
